Experimental data from US20230390386A1, “REPLICATION-DEFECTIVE VACCINES AND USES THEREOF” (priority 2020, published 2023).

Test system: HSV-2 GFP
Assay: HSV-2 GFP fluorescence imaging and growth curve (plaque assay) in ARPE-19 cells after CM treatment
Format: cell-based, human simplex virus-2
Details: for HSV-2-GFP infection and growth: ARPE-19 cells
Method: Human Simplex Virus (HSV) treatment with CM: The ARPE-19 (ATCC CRL-2302) cells were grown in 12 well plate in DMEM with 10% FBS and 1% P/S. […] were treated with different concentration of centanamycin (100 μM, 10 μM, 1μM, 0.1 μM, and 0.01 μM) for two hours at room temperature. The CM treated HSV were washed 3 times with cDMEM after treatment to remove CM and added to the ARPE-19 cells in triplicate at an MOI of 0.2. The HSV viruses were collected at 6, 12, 18, 24, 30, 36, and 42 hours of post-infection. The virus titer was determined by plaque assays using ARPE-19 cells.
In this study, the HSV-2 GFP was treated with the different concentrations of CM ranging from 100 μM to 0.01 μM (10-fold serial dilution at each concentration) and determined the growth curve using plaque assay (FIG. 2B). […] A 10 μM CM treatment of HSV-2-GFP leads to the virus attenuation and the virus was not able to spread to adjacent cells (FIG. 2A). […] The virus treatment with 1 μM CM lead to viral infection in host cells and extremely slowly spread to neighbor cells (FIG. 2A).

COc1cc2cc(C(=O)Nc3cc(N)c4ccccc4c3CCCl)[nH]c2c(OC)c1OC [CM, centanamycin]
CM concentration needed to produce replication-defective HSV-2: 1 µM
HSV-2-GFP infection and growth (virus treated with 1.0 μM CM): slower growth as compared to untreated
HSV-2-GFP infection and growth (virus treated with 10 μM CM): able to infect the cells but not replicate
HSV-2-GFP infection and growth (virus treated with 100 μM CM): completely inhibits the virus infection
